Reference: US20230391826A1, “COMPOSITIONS AND METHODS FOR TREATING DISEASES” (Sanford Burnham Prebys Medical Discovery Institute, priority 2020, published 2023)
In brackets after ≈: the same amount, converted by molar mass. Read-outs that look alike come from different tables or passages of the source.

Tests used:
EphA2 LBD = target: T1, EphA2 LBD (Homo sapiens, UniProt P29317); assay: Isothermal titration calorimetry (ITC) with soluble EphA2 LBD; assay type: binding
T1 construct: made in house; host or cells: E. coli Origami 2(DE3)
T1 sequence (P29317 28-200): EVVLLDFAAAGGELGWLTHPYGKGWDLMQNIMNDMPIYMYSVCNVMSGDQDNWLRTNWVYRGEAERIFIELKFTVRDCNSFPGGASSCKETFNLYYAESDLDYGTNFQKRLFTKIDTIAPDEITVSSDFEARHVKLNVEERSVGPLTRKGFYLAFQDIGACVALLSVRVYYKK
Protocol: (FIG. 10A-10E) The EphA2 LBD was titrated at 200-250 μM into 10-12.5 μM of the indicated peptide.
For ITC, all peptides are dissolved in DMSO and both the EphA2 LBD and the peptides are diluted to obtain a final buffer containing 9.5 mM HEPES, pH 7.9, 95 mM NaCl, and 5% DMSO. The experiments are carried out at 296 K (23° C.) using an ITC200 calorimeter (Microcal). Two-microliter aliquots of a peptide solution are injected into the cell containing 205 μL EphA2 LBD. 200-400 μM peptides are titrated into 20-40 μM EphA2 LBD. Experimental data are analyzed using the Origin software package (Microcal). The integrated values for the reaction heats are normalized to the amount of injected peptide after blank subtraction.

[1] = Peptide solubility in PBS/H2O/DMSO; assay type: physicochemical
Protocol: Peptide identity and purity are documented by mass spectrometry and high-performance liquid chromatography (HPLC). The peptide solubility values are determined. Concentrated peptide stocks are prepared in DMSO or H2O and stored frozen at −80° C.

other Eph receptors = assay: ELISA selectivity: ephrinA5-AP binding to EphA receptors and ephrinB2-AP binding to EphB receptors; conditions: peptide at ~100-fold its IC50
Description: FIG. 1A-1C illustrates an example of Potency and selectivity of EphA2-targeting dimeric peptides. (FIG. 1A) ELISAs comparing the ability of the peptides to inhibit binding of ephrin-A5 fused to alkaline phosphatase (ephrinA5-AP) to the immobilized EphA2 extracellular domain fused to the Fc portion of an antibody (EphA2-Fc). The graphs show averages ±SD from triplicate measurements from a representative experiment. IC50 values calculated from the fitted curves in each experiment are shown. Averages of IC50 values obtained from multiple experiments are shown in panel FIG. 1B and Table 3. The 10 nM peptide concentration is outlined in red. (FIG. 1B) Plot of the average IC50 values (listed in Table 3) for different ligands. […] (FIG. 1C) EphrinA5-AP binding to EphA receptors and ephrinB2-AP binding to EphB receptors in the presence of dimeric peptides representing each of the three configurations. Values are normalized to ephrin binding without peptide. The graphs show averages and SDs from triplicate measurements (with each measurement shown as a dot).
An important feature of the original YSA peptide and its monomeric derivatives is that they specifically bind to EphA2, whereas the ephrinA ligands promiscuously binds to all EphA receptors (9, 31, 37, 53). […]

EphA2 [2] = target: T2, EphA2 (Homo sapiens, UniProt P29317, G131Y); assay: Quantitative FRET of EphA2 oligomerization in transiently transfected HEK293 cells; assay type: cell-based
T2 construct: expressed in transfected cells; host or cells: HEK293 (HEK293T), transient transfection
T2 sequence (P29317 24-976 G131Y): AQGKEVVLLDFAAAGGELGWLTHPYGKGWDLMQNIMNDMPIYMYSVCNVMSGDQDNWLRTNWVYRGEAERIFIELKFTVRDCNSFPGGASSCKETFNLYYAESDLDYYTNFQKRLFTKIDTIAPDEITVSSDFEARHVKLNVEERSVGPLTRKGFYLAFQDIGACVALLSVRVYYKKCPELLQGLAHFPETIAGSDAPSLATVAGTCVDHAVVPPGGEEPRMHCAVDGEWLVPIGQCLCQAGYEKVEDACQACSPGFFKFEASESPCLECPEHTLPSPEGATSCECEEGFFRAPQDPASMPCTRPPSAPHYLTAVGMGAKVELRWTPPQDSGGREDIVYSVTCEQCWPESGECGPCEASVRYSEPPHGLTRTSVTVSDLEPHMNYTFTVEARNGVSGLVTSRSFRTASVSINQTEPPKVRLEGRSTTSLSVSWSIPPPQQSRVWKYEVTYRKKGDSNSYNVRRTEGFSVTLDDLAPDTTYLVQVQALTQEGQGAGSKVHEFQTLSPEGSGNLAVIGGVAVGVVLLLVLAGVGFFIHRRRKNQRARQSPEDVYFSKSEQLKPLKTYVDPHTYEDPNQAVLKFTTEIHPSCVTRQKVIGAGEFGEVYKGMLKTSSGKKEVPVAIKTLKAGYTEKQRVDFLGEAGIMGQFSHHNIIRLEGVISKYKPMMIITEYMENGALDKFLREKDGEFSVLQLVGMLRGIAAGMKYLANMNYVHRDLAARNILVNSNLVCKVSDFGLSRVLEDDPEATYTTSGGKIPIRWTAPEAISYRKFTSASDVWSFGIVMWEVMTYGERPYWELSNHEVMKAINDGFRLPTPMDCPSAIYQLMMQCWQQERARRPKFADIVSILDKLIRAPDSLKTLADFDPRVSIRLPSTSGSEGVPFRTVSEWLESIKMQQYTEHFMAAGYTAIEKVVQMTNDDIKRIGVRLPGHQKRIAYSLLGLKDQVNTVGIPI
Description: (§1) FIG. 4A-4E illustrates an example where dimers with different configurations induce EphA2 oligomerization and patching on the cell surface. (FIG. 4A-4D) Oligomerization curves comparing EphA2 WT and the G131Y and L223R/L254R/[…] interface mutants transiently expressed in HEK293 cells and treated with saturating concentrations of C-terminally linked dimer (2) or N-terminally linked dimer (5). The curves were obtained by fitting quantitative FRET data to monomer-oligomer models. […] Curves for higher order oligomerization are steeper than dimerization curves. (FIG. 4E) Two-photon integrated fluorescence images of HEK293 cells expressing EphA2-EYFP and EphA2-mTURQ and under hypo-osmotic conditions. The plasma membrane regions in the rectangular yellow outlines are enlarged in the insets at the bottom of each panel. The dimeric peptides induce patching of EphA2 WT on the plasma membrane and dimer (5) also induces patching of the EphA2 L223R/L254R/V255R mutant, while in the other cases the EphA2 interface mutations disrupt patching. The scale bar represents 10 μm for the main panels and 4 μm for the insets. # indicates the presence of EphA2 patches in the plasma membrane.
(§2) FIG. 12 illustrates an example of FRET efficiencies versus total receptor concentrations. […]
(§3) To examine the effects of dimeric peptide ligands on EphA2 oligomerization (including dimerization and higher order clustering), quantitative FRET experiments were performed in live cells. […] FRET is then measured in hundreds of individual cells with different EphA2 expression levels (FIG. 12), and the data are combined to yield average oligomeric fractions at different EphA2 concentrations (FIG. 4A-4D). […]
(§4) To obtain the data points for oligomerization curves (FIG. 12), the concentration of EphA2 in each small region of plasma membrane in which FRET efficiency was measured. Conversion of fluorescence intensity into accurate 2-dimensional EphA2 concentration requires a reversible hypo-osmotic treatment to swell the cells and smooth the wrinkled topology of their plasma membrane (FIG. 4E). […]

EphA2 [3] = target: T3, EphA2 (Homo sapiens, UniProt P29317, L223R/L254R/V255R); assay: as above; assay type: cell-based; conditions: swollen HEK293 cells
T3 construct: expressed in transfected cells; host or cells: HEK293 (HEK293T), transient transfection
T3 sequence (P29317 24-976 L223R/L254R/V255R): as the sequence (P29317 24-976 G131Y) above, with Y108G, L200R, L231R, V232R counted along it
Description: as §1, §2, §3, §4

EphA2 [4] = target: EphA2 (Homo sapiens, UniProt P29317); assay: as above; assay type: cell-based; design: expressed in transfected cells; host or cells: HEK293 (HEK293T), transient transfection
Sequence of EphA2 (Homo sapiens, UniProt P29317) (P29317 24-976): as the sequence (P29317 24-976 G131Y) above, with Y108G counted along it
Description: as §1, with “The dimeric peptides induce patching of EphA2 WT on the plasma membrane and dimer (5) also induces patching of the EphA2 L223R/L254R/V255R mutant, while in the other cases the EphA2 interface mutations disrupt patching. The scale bar represents 10 μm for the main panels and 4 μm for the insets. # indicates the presence of EphA2 patches in the plasma membrane.” left out
as §3
To obtain the data points for oligomerization curves (FIG. 12), the concentration of EphA2 in each small region of plasma membrane in which FRET efficiency was measured. […]

[5] = saturating peptide, HEK293 cells

## CC(C)C[C@H](NC(=O)[C@H](Cc1c[nH]c2ccccc12)NC(=O)[C@H](C)NC(=O)CNC(=O)[C@@H](N)CSSC[C@H](N)C(=O)NCC(=O)N[C@@H](C)C(=O)N[C@@H](Cc1c[nH]c2ccccc12)C(=O)N[C@@H](CC(C)C)C(=O)N[C@@H](C)C(=O)N[C@@H](Cc1ccc(O)cc1)C(=O)N1CCC[C@H]1C(=O)N[C@@H](CC(=O)O)C(=O)N[C@@H](CO)C(=O)N[C@H](C(=O)N1CCC[C@H]1C(=O)N[C@@H](Cc1ccc(O)cc1)C(=O)N[C@@H](CCCNC(=N)N)C(=O)N1CCC[C@H]1C(=O)N[C@@H](CCCCN)C(=O)O)C(C)C)C(=O)N[C@@H](C)C(=O)N[C@@H](Cc1ccc(O)cc1)C(=O)N1CCC[C@H]1C(=O)N[C@@H](CC(=O)O)C(=O)N[C@@H](CO)C(=O)N[C@H](C(=O)N1CCC[C@H]1C(=O)N[C@@H](Cc1ccc(O)cc1)C(=O)N[C@@H](CCCNC(=N)N)C(=O)N1CCC[C@H]1C(=O)N[C@@H](CCCCN)C(=O)O)C(C)C [compound 5, CGA-WLA-YRPK dimer (N-ter)]
EphA2 LBD
  Kd: 380 ± 80 nM
EphA2 LBD; Table 3
  N (binding stoichiometry by ITC): N = 2.2 ± 0.2
EphA2 LBD; Table 3, soluble EphA2 LBD
  Kd: 21 ± 3 nM
EphA2 LBD; Table 6
  -TΔS: 21.93 ± 0.31 kcal/mol
EphA2 LBD; Table 6, binding stoichiometry
  N: 2.2 ± 0.2
EphA2 LBD; Table 6, change in Gibbs energy
  ΔG: -10.41 ± 0.10 kcal/mol
EphA2 LBD; Table 6, change in enthalpy
  ΔH: -32.34 ± 0.21 kcal/mol
[1]; DMSO, third of PBS/H2O/DMSO, read-out: Solubility in DMSO
  solubility: 15000 µg/mL (≈ 4120 µM)
[1]; PBS, Table 4, first of PBS/H20/DMSO, read-out: Solubility in PBS
  solubility: 5000 µg/mL (≈ 1370 µM)
[1]; PBS, first of PBS/H2O/DMSO, read-out: Solubility in PBS
  solubility: 5000 µg/mL (≈ 1370 µM)
[1]; water, Table 4, second of PBS/H20/DMSO, read-out: Solubility in H20
  solubility: 5000 µg/mL (≈ 1370 µM)
[1]; water, second of PBS/H2O/DMSO, read-out: Solubility in H2O
  solubility: 5000 µg/mL (≈ 1370 µM)
Other Eph receptors
  selectivity for EphA2 / binding to other Eph receptors: do not bind to other Eph receptors
EphA2 [2]; [5]
  best-fit FRET oligomerization model, EphA2 G131Y mutant: dimer model
EphA2 [2]; swollen HEK293 cells
  EphA2 patches on the plasma membrane, EphA2 G131Y mutant: not
EphA2 [3]
  EphA2 patches on the plasma membrane, EphA2 L223R/L254R/V255R mutant: causes patches
EphA2 [4]; [5]
  best-fit FRET oligomerization model, EphA2 WT: higher order oligomer model
EphA2 [4]; swollen HEK293 cells
  EphA2 patches on the plasma membrane, EphA2 WT: formation of fluorescent patches
